From PubChem BioAssay (NCI) come the findings set out here.

Among the test systems are SF-539 CNS; MCF7 breast; K-562 leukemia; RXF 393 renal; HS 578T breast; 786-0 renal; SR leukemia; OVCAR-4 ovarian; SF-295 CNS; COLO 205 colon.
Holding throughout (test): NCI tumour cell line growth inhibition, 48 h

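Cultured in 96-well plates, cells were exposed to test compound for 48 hours across five concentrations. GI50 marks 50% less growth. TGI denotes the concentration required for complete inhibition of growth.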 Where only a bound is given, the exact number is not on record here.

With `COc1ccc(/C=C/c2ccnc3ccccc23)cc1`, the TGI came out at 37.6 µM in the assay on SF-539 CNS; 31.4 µM in the assay with MCF7 breast; 23.2 µM with K-562 leukemia; 35.4 µM in the assay on RXF 393 renal; 48.8 µM in the assay with HS 578T breast; 30.6 µM with 786-0 renal. The TGI with SR leukemia is 61.1 µM; with OVCAR-4 ovarian, 19.9 µM; with SF-295 CNS it was 32.7 µM; in the assay on COLO 205 colon it was 31.1 µM.

`CC(=O)NC1CCCN(O)C(=O)/C=C(/C)CCOC(=O)C(NC(C)=O)CCCN(O)C(=O)/C=C(/C)CCOC(=O)C(NC(C)=O)CCCN(O)C(=O)/C=C(/C)CCOC1=O.[Fe]` (configuration not stated): the GI50 in the assay on SF-539 CNS, in the assay with MCF7 breast, in the assay with HS 578T breast, with 786-0 renal, in the assay with SR leukemia and in the assay on OVCAR-4 ovarian was greater than 100 µM each time. The GI50 in the assay with SF-295 CNS and in the assay on COLO 205 colon was greater than 100 µM in each case. For the same compound, the TGI with SF-539 CNS, with MCF7 breast, in the assay on HS 578T breast, in the assay on 786-0 renal, with SR leukemia and in the assay with OVCAR-4 ovarian was greater than 100 µM each time. For the same compound, the TGI in the assay on SF-295 CNS and with COLO 205 colon was greater than 100 µM in each case.

`C/C(=C\CCc1ccsc1)CC/C=C(\C)CCCN1CCN(CCO)CC1`: the GI50 in the assay with SF-539 CNS was 3.41 µM; with MCF7 breast, 2.85 µM; in the assay with K-562 leukemia, 1.61 µM; in the assay with RXF 393 renal it was 1.82 µM; with HS 578T breast it was 2.7 µM; with 786-0 renal it was 2.27 µM. Also, the GI50 in the assay on SR leukemia is 1.93 µM; in the assay on OVCAR-4 ovarian, 2.7 µM; in the assay on SF-295 CNS it was 2.29 µM; with COLO 205 colon it was 1.89 µM. Further, the TGI was determined as 13.9 µM in the assay on SF-539 CNS; 8.56 µM in the assay on MCF7 breast; 4.48 µM in the assay with K-562 leukemia; 5.42 µM with RXF 393 renal; 8.07 µM with HS 578T breast; 5.35 µM with 786-0 renal. The TGI came out at 4.71 µM with SR leukemia, 14.7 µM in the assay on OVCAR-4 ovarian, 5.64 µM in the assay with SF-295 CNS and 3.95 µM with COLO 205 colon.

In the case of `Cc1ccc(C2NC(=S)N3C(c4ccc(C)cc4)NC(=S)N23)cc1` (configuration not stated), the GI50 with SF-539 CNS was 4.12 µM; with MCF7 breast, 2.73 µM; in the assay with K-562 leukemia, 1.01 µM; in the assay on RXF 393 renal, 3.27 µM; in the assay on HS 578T breast, 4.74 µM; in the assay with 786-0 renal it was 5.82 µM. In addition, the GI50 in the assay on SR leukemia was 0.491 µM; with OVCAR-4 ovarian, 9.89 µM; in the assay with SF-295 CNS it was 2.92 µM; with COLO 205 colon it was 6.07 µM. Also, the TGI in the assay with SF-539 CNS was found to be 13.7 µM; in the assay with MCF7 breast, 12.9 µM; in the assay with K-562 leukemia it was 12 µM; with RXF 393 renal, 14.1 µM; in the assay on HS 578T breast, 25 µM; in the assay on 786-0 renal, 19.9 µM. Besides, the TGI with SR leukemia was determined as 3.55 µM; in the assay on OVCAR-4 ovarian, 21.9 µM; in the assay on SF-295 CNS, 11.8 µM; with COLO 205 colon it was 18.5 µM.

For the compound `Cc1ccc(-n2nnc3c(sc4ccccc43)c2=O)cc1`, the GI50 in the assay on SF-539 CNS is 5.23 µM; in the assay with MCF7 breast it was 43.7 µM; in the assay with K-562 leukemia it was greater than 100 µM; with RXF 393 renal it was 16.8 µM; in the assay with HS 578T breast it was 2.18 µM; with 786-0 renal, 3.4 µM. Moreover, the GI50 in the assay on SR leukemia is greater than 100 µM; with OVCAR-4 ovarian it was 2.02 µM; in the assay on SF-295 CNS, 3.03 µM; with COLO 205 colon, 6.23 µM. Further, the TGI in the assay with SF-539 CNS was 30.6 µM; in the assay with MCF7 breast it was greater than 100 µM; with K-562 leukemia, greater than 100 µM; in the assay with RXF 393 renal it was greater than 100 µM; with HS 578T breast, 8.71 µM; in the assay on 786-0 renal it was 12.1 µM. The TGI with SR leukemia was greater than 100 µM; in the assay with OVCAR-4 ovarian, 4.82 µM; in the assay on SF-295 CNS it was 14.5 µM; in the assay on COLO 205 colon, greater than 100 µM.

On to `Cc1cc(C(=O)N2CCN(C)CC2)c2c(=O)n(-c3ccccc3)c(=O)n(CC(O)CN3CCN(c4ncccn4)CC3)c2n1` (configuration not stated), for which the GI50 is greater than 100 µM with SF-539 CNS; greater than 100 µM in the assay on MCF7 breast; greater than 100 µM with K-562 leukemia; greater than 100 µM with HS 578T breast; greater than 100 µM with 786-0 renal; 9.01 µM in the assay on SR leukemia. The GI50 in the assay with OVCAR-4 ovarian, in the assay with SF-295 CNS and in the assay on COLO 205 colon was greater than 100 µM in each case. The TGI in the assay on SF-539 CNS, in the assay on MCF7 breast, in the assay on K-562 leukemia, in the assay on HS 578T breast, in the assay with 786-0 renal and with SR leukemia was greater than 100 µM in each case. Moreover, the TGI in the assay with OVCAR-4 ovarian, in the assay on SF-295 CNS and in the assay with COLO 205 colon was greater than 100 µM in each case.

With `COc1cc2c(cc1OCc1ccccc1)N=C[C@@H]1C[C@@H](F)CN1C2=O`, the GI50 in the assay with SF-539 CNS was 1.52 µM; with MCF7 breast, 0.275 µM; with K-562 leukemia, 0.5 µM; with RXF 393 renal, 0.217 µM; with 786-0 renal, 0.189 µM; with SR leukemia it was 0.29 µM. Besides, the GI50 with OVCAR-4 ovarian was 2.31 µM; in the assay with SF-295 CNS it was 0.678 µM; in the assay with COLO 205 colon, 0.583 µM. Further, the TGI was 4.68 µM in the assay on SF-539 CNS; 2.32 µM in the assay on MCF7 breast; greater than 100 µM in the assay on K-562 leukemia; 0.511 µM in the assay on RXF 393 renal; 0.503 µM with HS 578T breast; 0.661 µM with 786-0 renal. Moreover, the TGI with SR leukemia came out at 1.46 µM; with OVCAR-4 ovarian, 27.4 µM; in the assay on SF-295 CNS, 1.85 µM; in the assay on COLO 205 colon, 9.64 µM.

Consider `O=C(O)c1ccccc1-c1ccccc1C(=O)Nc1ccc2c(c1)Cc1ccccc1-2`, for which the TGI in the assay with SF-539 CNS is 44.6 µM; in the assay with MCF7 breast, greater than 100 µM; in the assay on RXF 393 renal, greater than 100 µM; in the assay with HS 578T breast, greater than 100 µM; in the assay on 786-0 renal, greater than 100 µM; in the assay with SR leukemia, 65.1 µM. Further, the TGI was greater than 100 µM in the assay on OVCAR-4 ovarian, greater than 100 µM with SF-295 CNS and 31.2 µM in the assay on COLO 205 colon.
